Molecules are shown by their SMILES.

Chain of IDO1 (P14902 whole entry): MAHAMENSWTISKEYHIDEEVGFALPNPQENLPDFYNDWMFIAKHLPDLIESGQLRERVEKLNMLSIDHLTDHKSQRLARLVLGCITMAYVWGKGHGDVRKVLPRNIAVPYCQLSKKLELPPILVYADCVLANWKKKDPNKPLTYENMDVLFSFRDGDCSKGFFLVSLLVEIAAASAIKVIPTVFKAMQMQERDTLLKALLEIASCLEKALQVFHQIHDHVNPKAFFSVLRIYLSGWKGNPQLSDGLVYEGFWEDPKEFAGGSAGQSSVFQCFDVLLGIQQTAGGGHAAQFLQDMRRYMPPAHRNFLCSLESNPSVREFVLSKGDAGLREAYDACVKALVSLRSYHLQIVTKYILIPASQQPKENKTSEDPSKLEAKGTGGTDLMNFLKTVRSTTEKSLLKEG

The target of one experiment is IDO1 (Homo sapiens, UniProt P14902). The experiment in a line: IDO1 Cellular Assay in HeLa Cells Stimulated with IFNγ. The class given is cell-based. As to conditions: about 48 hours, read-out: Hela IC50. How it is done:
Biological Assays IDO1 Cellular Assay in HeLa Cells Stimulated with IFNγ
HeLa cells were cultured in complete HeLa culture medium (90% EMEM, 10% heat-inactivated fetal bovine serum) and expanded to about 1×10^9 cells. The cells were then collected and frozen down at 1×10^7 cells/vial in 1 mL frozen medium (90% complete HeLa culture medium, 10% DMSO).
Compounds to be tested were serially diluted in ten 3-fold steps in DMSO starting from 10 mM DMSO stocks in Echo low volume plate(s).
Frozen HeLa cells were thawed and transferred into HeLa assay medium (99% complete HeLa culture medium, 1% Pen/Strep) with 20 mL medium/vial of cells. The cells were spun down at 250 g in a table top centrifuge for 5 min and suspended in same volume of HeLa assay medium. The cells were then counted and adjusted to a density of 2×10^5 cells/mL in HeLa assay medium. Sterile L-tryptophan were added to the cells with final concentration of 300 uM L-tryptophan. A small aliquot (2 mL/plate) of HeLa cells were set aside and were not treated with IFNγ, to serve as the Max-E control.
HeLa cells with and without IFNγ were dispensed to the respective wells of 384-well assay plates containing the compounds. The plates were incubated for about 48 hours at a 37° C., 5% CO2 incubator. Afterwards, 12 μL of 0.5 M methyl isonipecotate in dimethyl sulfoxide were added into each well and the plates were sealed and incubated at 37° C. without CO2 overnight. The plates were centrifuged for 1 min at 200×g. The resulting fluorescence was measured in a Spectramax plate reader (Molecular Devices) with a 400 nm excitation filter and a 510 nm emission filter.
Potencies were calculated by […] least squares fit to the four parameter logistic IC50 equation.
Turning to `Cc1noc(C(=O)N2CCCc3cc(C(C)C(=O)Nc4ccc(F)cc4)ccc32)n1` (stereo not drawn) [Example 43, N-(4-fluorophenyl)-2-[1-(3-methyl-1H-1,2,4-oxadiazole-5-carbonyl)-1,2,3,4-tetrahydroquinolin-6-yl]propanamide], the IC50 came out at 4.2 nM.
Still for that read-out and setting: the result for `COC(=O)N1CCCc2nc(C3(NC(=O)c4ccc(Cl)cc4)CCC3)ccc21` [Example 219, methyl 6-{1-[(4-chlorobenzene-1-carbonyl)amino]cyclobutyl}-3,4-dihydro-1,5-naphthyridine-1(2H)-carboxylate] reads 9.9 nM; that for `CC(C)CC(=O)N1CCCc2cc(CNC(=O)c3ccc(C(F)(F)F)cc3)ccc21` [Example 7, N-{[1-(3-methylbutanoyl)-1,2,3,4-tetrahydroquinolin-6-yl]methyl}-4-(trifluoromethyl)benzamide], 42.5 nM.
Regarding `CC(C(=O)Nc1ccc(F)cc1)c1ccc2c(c1)CCCN2C1COC1` (stereo not drawn) [Example 231, N-(4-fluorophenyl)-2-[1-(oxetan-3-yl)-1,2,3,4-tetrahydroquinolin-6-yl]propanamide], the IC50 is 91.1 nM.
On the same count and under the same terms, then `CC(NC(=O)c1ccc(F)cc1)c1ccc2c(n1)CCCN2c1cc(C(F)(F)F)ncn1` (stereo not drawn) [Example 235, 4-fluoro-N-(1-{5-[6-(trifluoromethyl)pyrimidin-4-yl]-5,6,7,8-tetrahydro-1,5-naphthyridin-2-yl}ethyl)benzamide], with 17 nM; and `O=C(C1CCCCO1)N1CCCc2nc(C3(C(=O)Nc4ccc(F)cc4)CCC3)ccc21` (single isomer, unassigned) [Example 178, N-(4-fluorophenyl)-1-[5-(oxane-2-carbonyl)-5,6,7,8-tetrahydro-1,5-naphthyridin-2-yl]cyclobutane-1-carboxamide], with 1.6 nM.
On the same count and under the same terms, the result for `O=C(c1cocn1)N1CCCc2cc(C3(C(=O)Nc4ccc(F)cn4)CCC3)ccc21` [Example 121, N-(5-fluoropyridin-2-yl)-1-[1-(1,3-oxazole-4-carbonyl)-1,2,3,4-tetrahydroquinolin-6-yl]cyclobutane-1-carboxamide] reads 4.1 nM; that for `CC(NC(=O)c1ccc(F)cc1)c1ccc2c(n1)CCCN2C(=O)C1(C)CCCCO1` (stereo in doubt) [Example 139, 4-fluoro-N-(1-{5-[(2S)-2-methyloxane-2-carbonyl]-5,6,7,8-tetrahydro-1,5-naphthyridin-2-yl}ethyl)benzamide], 348 nM.
On the same count and under the same terms, then `C[C@H](C(=O)Nc1ccc(F)cc1)c1ccc2c(c1)CCCN2C(=O)[C@@H]1CCOC1` [Example 78, (2S)-N-(4-fluorophenyl)-2-{1-[(3R)-oxolane-3-carbonyl]-1,2,3,4-tetrahydroquinolin-6-yl}propanamide], with 51.6 nM; and `COc1ccc(C(=O)NCc2ccc3c(c2)CCCN3C(=O)CC(C)C)cc1` [Example 6, 4-methoxy-N-{[1-(3-methylbutanoyl)-1,2,3,4-tetrahydroquinolin-6-yl]methyl}benzamide], with 56.4 nM.
In the case of `CC(C)CC(=O)N1CCCc2cc(CNC(=O)c3ccc(Cl)c(F)c3)ccc21` [Example 9, 4-chloro-3-fluoro-N-{[1-(3-methylbutanoyl)-1,2,3,4-tetrahydroquinolin-6-yl]methyl}benzamide], the IC50 was 49.3 nM.
Regarding `CC(C)CC(=O)N1c2ccc(CNC(=O)c3ccc(Cl)cc3)cc2CCC1(C)C` [Example 13, 4-chloro-N-{[2,2-dimethyl-1-(3-methylbutanoyl)-1,2,3,4-tetrahydroquinolin-6-yl]methyl}benzamide], the concentration for half-maximal inhibition (IC50) was found to be 98.6 nM.
On the same count and under the same terms, then `COC(=O)N1CCCc2nc(C(C)C(=O)Nc3ccc(Cl)cc3)ccc21` (stereo not drawn) [Example 223, methyl 6-{1-[(4-chlorophenyl)amino]-1-oxopropan-2-yl}-3,4-dihydro-1,5-naphthyridine-1(2H)-carboxylate], with 10.8 nM; and `CC(NC(=O)c1ccc(F)cc1)c1ccc2c(n1)CCCN2CC1CC1` (stereo not drawn) [Example 227, N-{1-[5-(cyclopropylmethyl)-5,6,7,8-tetrahydro-1,5-naphthyridin-2-yl]ethyl}-4-fluorobenzamide], with 70.5 nM; and `CC(C)(C(=O)Nc1ccc(F)cc1)c1ccc2c(n1)CCCN2C(=O)C1CCOCC1` [Example 186, N-(4-fluorophenyl)-2-methyl-2-[5-(oxane-4-carbonyl)-5,6,7,8-tetrahydro-1,5-naphthyridin-2-yl]propanamide], with 5.9 nM.
On to `Cc1ccnc(C(=O)N2CCCc3cc(C4(C(=O)Nc5ccc(F)cn5)CCC4)ccc32)n1` [Example 118, N-(5-fluoropyridin-2-yl)-1-[1-(4-methylpyrimidine-2-carbonyl)-1,2,3,4-tetrahydroquinolin-6-yl]cyclobutane-1-carboxamide], for which the IC50 was determined as 1.5 nM.
The same measure, in the same setting: then `O=C(Nc1ccc(Cl)cc1)C1(c2ccc3c(n2)CCCN3c2cccc(C(F)(F)F)n2)CCC1` [Example 409, N-(4-chlorophenyl)-1-(5-(6-(trifluoromethyl)pyridin-2-yl)-5,6,7,8-tetrahydro-1,5-naphthyridin-2-yl)cyclobutane-1-carboxamide], with 1.74 nM; and `C[C@H](C(=O)Nc1ccc(F)cn1)c1ccc2c(c1)CCCN2C(=O)C1CC1` (single isomer, unassigned) [Example 61], with 9.4 nM.
Still for that read-out and setting: the result for `O=C(C1CCCCO1)N1CCCc2nc(C3(C(=O)Nc4ccc(F)cc4)CCC3)ccc21` (single isomer, unassigned) [Example 179, N-(4-fluorophenyl)-1-[5-(oxane-2-carbonyl)-5,6,7,8-tetrahydro-1,5-naphthyridin-2-yl]cyclobutane-1-carboxamide] reads 1.8 nM; that for `C=CCC(C(=O)Nc1ccc(F)cc1)c1ccc2c(c1)CCCN2C(=O)c1cccc(Cl)c1` (stereo not drawn) [Example 58, 2-[1-(3-chlorobenzene-1-carbonyl)-1,2,3,4-tetrahydroquinolin-6-yl]-N-(4-fluorophenyl)pent-4-enamide], 4.3 nM.
Same read-out and setting: the result for `CC(C(=O)Nc1ccc(Cl)cc1)c1ccc2c(c1)CC(F)CN2C(=O)c1cccc(Cl)c1` (single isomer, unassigned) [Example 258, 2-(1-(3-chlorobenzoyl)-3-fluoro-1,2,3,4-tetrahydroquinolin-6-yl)-N-(4-chlorophenyl)propanamide] reads 5.86 nM; that for `CC(NC(=O)c1ccc(F)cc1)c1ccc2c(n1)CCCN2C(=O)c1cc(F)ccn1` (stereo not drawn) [Example 282, 2-(1-(4-fluorobenzamido)ethyl)-5-(4-fluoropicolinoyl)-5,6,7,8-tetrahydro-1,5-naphthyridin-1-ium 2,2,2-trifluoroacetate], 2.8 nM.
Take `C[C@H](C(=O)Nc1ccc(F)cc1)c1ccc2c(c1)CCCN2C(=O)C1CN(C)CCO1` (stereo partly drawn) [Example 74, (2S)-N-(4-fluorophenyl)-2-[1-(4-methylmorpholine-2-carbonyl)-1,2,3,4-tetrahydroquinolin-6-yl]propanamide]: the IC50 is 460 nM.
For `CC(C)C(=O)N1CCCc2cc(C(C)C(=O)Nc3ccc(F)cc3)ccc21` (stereo not drawn) [Example 40, N-(4-fluorophenyl)-2-[1-(2-methylpropanoyl)-1,2,3,4-tetrahydroquinolin-6-yl]propanamide], the IC50 stood at 5 nM.
As for `O=C(NC1(c2ccc3c(n2)CCCN3C(=O)C2CC2)CC1)c1ccc(F)cc1` [Example 168, N-{1-[5-(cyclopropanecarbonyl)-5,6,7,8-tetrahydro-1,5-naphthyridin-2-yl]cyclopropyl}-4-fluorobenzamide], the IC50 was found to be 25.7 nM.
The same measure, in the same setting: then `O=C(NC1(c2ccc3c(n2)CCCN3C(=O)NC2CC2)CC1)c1ccc(F)cc1` [Example 214, N-cyclopropyl-6-{1-[(4-fluorobenzene-1-carbonyl)amino]cyclopropyl}-3,4-dihydro-1,5-naphthyridine-1(2H)-carboxamide], with 159 nM.

Staying with this experiment, now noted: read-out: Hela IC50.
Turning to `C[C@H](NC(=O)c1ccc(F)cc1)c1ccc2c(n1)CCCN2c1cccc(=O)[nH]1` [Example 386, (S)-2-(1-(4-fluorobenzamido)ethyl)-5-(6-oxo-1,6-dihydropyridin-2-yl)-5,6,7,8-tetrahydro-1,5-naphthyridin-1-ium 2,2,2-trifluoroacetate], the IC50 is 41.4 nM.
Still for that read-out and setting: the result for `CC(NC(=O)c1cccc(C#N)c1)c1ccc2c(n1)CCCN2C(=O)OC1CC1` (stereo not drawn) [Example 335, cyclopropyl 6-(1-(3-cyanobenzamido)ethyl)-3,4-dihydro-1,5-naphthyridine-1(2H)-carboxylate] reads 5700 nM.
Same read-out and setting: then `Cc1nccc(N2CCCc3nc(C(C)C(=O)Nc4ccc(F)cc4)ccc32)n1` (stereo not drawn) [Example 372, N-(4-fluorophenyl)-2-(5-(2-methylpyrimidin-4-yl)-5,6,7,8-tetrahydro-1,5-naphthyridin-2-yl)propanamide], with 5.34 nM; and `CC(COC(=O)N1CCCc2nc(C(C)NC(=O)c3ccc(F)cc3)ccc21)Oc1ccccc1` (stereo not drawn) [Example 327, 2-phenoxypropyl 6-(1-(4-fluorobenzamido)ethyl)-3,4-dihydro-1,5-naphthyridine-1(2H)-carboxylate], with 14.4 nM.

By IC50 is commonly meant the point on the concentration scale where inhibition reaches its midpoint.
